Reference: article PMC7261474 (Journal of medicinal chemistry, 2020)
Values joined by “and” are separate entries in the source; they are usually repeats but may differ in a detail not shown here. Equal entries are not always repeated. Where two headings read alike, the source gives them in different places. Where a SMILES comes first, the peptide text is derived from it. [ ]: non-standard residue; d: D form. The star is where a group is joined. hPhe = N[CH](CCc1ccccc1)C(=O)O; 4Pal = N[CH](Cc1ccncc1)C(=O)O; AMC = Cc1cc(=O)oc2cc(N*)ccc12; Cbz = O=C(OCc1ccccc1)*

What was measured:
[1] = target: T1, cruzain (Trypanosoma cruzi, UniProt P25779); test: Cruzain inhibition/inactivation, time courses with Cbz-Phe-Arg-AMC
[2] = Covalent adduct formation with glutathione; assay type: physicochemical; details: for reaction with GSH (adduct formation): 90 min incubation, 2:1 or 10:1 molar ratio GSH/inhibitor; for rate of formation of GSH adduct: 2:1 molar ratio GSH/inhibitor; for Keq of GSH adduct (apparent equilibrium): 2:1 molar ratio, equilibrium in 90 min
[3] = test system: T. cruzi (epimastigote forms, strain Y, ATCC 50832GFP); test: Growth inhibition of T. cruzi epimastigotes in axenic culture; assay type: cell-based, Trypanosoma cruzi; details: 5 days
[4] = test system: Primary human dermal fibroblast (HDF) cells; test: Human cell toxicity; assay type: cell-based; details: CC50 in human dermal fibroblasts / EC50 in infected cardiomyoblasts
[5] = target: T1, cruzain; test: Cruzain-catalysed hydrolysis of fluorogenic dipeptide-AMC substrates; assay type: biochemical; details: for Km / kcat: pH 7.5, 25 °C, 10% DMSO (v/v); for kcat rel: relative to S1 Cbz-Phe-Arg-AMC, S6 and S12 from 2% DMSO data
[6] = target: human cathepsin L (Homo sapiens, UniProt P07711); test: Human cathepsin L assay with Cbz-Phe-Arg-AMC; assay type: biochemical; details: pH 5.5, 25 °C, 10% DMSO
[7] = target: human cathepsin B (Homo sapiens, UniProt P07858); test: Human cathepsin B assay with Cbz-Phe-Arg-AMC; assay type: biochemical; details: pH 5.5, 25 °C, 10% DMSO
[8] = target: human cathepsin S (Homo sapiens, UniProt P25774); test: Human cathepsin S assay with Cbz-Phe-Arg-AMC; assay type: biochemical; details: pH 5.5, 25 °C, 10% DMSO
[9] = target: T1, cruzain; details: 2% DMSO (v/v); ref [40]; cited from earlier work
[10] = test system: T. cruzi strain Ca-I/72 in C2C12 mouse cardiomyoblasts; details: ref [55]; cited from earlier work

T1 sequence (P25779 123-467): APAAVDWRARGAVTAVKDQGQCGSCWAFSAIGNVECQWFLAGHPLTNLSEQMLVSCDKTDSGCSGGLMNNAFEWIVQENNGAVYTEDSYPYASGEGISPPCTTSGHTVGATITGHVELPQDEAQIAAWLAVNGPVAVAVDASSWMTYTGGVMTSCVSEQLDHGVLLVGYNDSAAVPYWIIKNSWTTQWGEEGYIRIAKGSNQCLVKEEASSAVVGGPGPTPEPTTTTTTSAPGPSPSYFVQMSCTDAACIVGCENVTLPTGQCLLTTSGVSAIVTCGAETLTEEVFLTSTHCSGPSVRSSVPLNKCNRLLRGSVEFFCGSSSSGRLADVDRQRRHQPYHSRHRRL
Sequence of human cathepsin S (P25774 115-331): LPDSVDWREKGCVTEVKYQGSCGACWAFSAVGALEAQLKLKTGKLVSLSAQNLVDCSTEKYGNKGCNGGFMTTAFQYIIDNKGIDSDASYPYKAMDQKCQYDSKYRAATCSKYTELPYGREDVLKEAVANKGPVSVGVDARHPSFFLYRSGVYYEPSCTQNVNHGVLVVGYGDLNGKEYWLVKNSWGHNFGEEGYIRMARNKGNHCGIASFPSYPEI
Sequence of human cathepsin L (P07711 114-333): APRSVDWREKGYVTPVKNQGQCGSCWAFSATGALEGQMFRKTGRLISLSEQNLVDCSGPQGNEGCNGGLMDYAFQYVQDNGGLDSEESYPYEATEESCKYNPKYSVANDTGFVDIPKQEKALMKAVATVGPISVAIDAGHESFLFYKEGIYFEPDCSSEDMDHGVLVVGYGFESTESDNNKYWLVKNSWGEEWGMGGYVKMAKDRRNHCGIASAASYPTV

With `O=C(N[C@@H](Cc1ccccc1)C(=O)NC(CCc1ncccn1)Cc1ccccc1)OCc1ccccc1` (stereo in doubt) [Compound 27, Benzyl ((S)-1-Oxo-3-phenyl-1-(((S)-1-phenyl-4-(pyrimidin-2-yl)-butan-2-yl)amino)propan-2-yl)carbamate] the Ki [1] was 22 µM.

For `O=C(N[C@@H](Cc1ccccc1)C(=O)N[C@H](/C=C/c1ncccn1)Cc1ccccc1)OCc1ccccc1` [Compound 7, Benzyl ((S)-1-Oxo-3-phenyl-1-(((S,E)-1-phenyl-4-(pyrimidin-2-yl)-but-3-en-2-yl)amino)propan-2-yl)carbamate], the “reaction with GSH (adduct formation)” value ([2]; pH 8.0) was “no adduct was observed”.

With `O=C(N[C@@H](Cc1ccccc1)C(=O)N[C@H](/C=C/c1ccccn1)Cc1ccccc1)OCc1ccccc1` [Compound 11, Benzyl ((S)-1-Oxo-3-phenyl-1-(((S,E)-1-phenyl-4-(pyridin-2-yl)but-3-en-2-yl)amino)propan-2-yl)carbamate] the “T. cruzi axenic culture EC50” value [3] was “poorly effective” and the “reaction with GSH (adduct formation)” value ([2]; pH 8.0) was “no adduct was observed”.

For `C[n+]1ccccc1/C=C/[C@H](Cc1ccccc1)NC(=O)[C@H](Cc1ccccc1)NC(=O)OCc1ccccc1.[I-]` [Compound 12, 2-((S,E)-3-((S)-2-(((Benzyloxy)carbonyl)amino)-3-phenylpropanamido)-4-phenylbut-1-en-1-yl)-1-methylpyridin-1-ium Iodide], the “selectivity index CC50/EC50” value [4] was over 10, the “rate of formation of GSH adduct” value ([2]; pH 8.0) was 0.037 mM⁻¹ s⁻¹ and the “Keq of GSH adduct (apparent equilibrium)” value ([2]; pH 8.0) was 7400 M⁻¹. The “conversion to GSH adduct” value ([2]; 20 min, 10:1 molar ratio of GSH to compound) was 97%.

In the case of `O=C(N[C@@H](Cc1ccccc1)C(=O)N[C@H](/C=C/c1ccccn1)CCc1ccccc1)OCc1ccccc1` [Compound 13, Benzyl ((S)-1-Oxo-3-phenyl-1-(((S,E)-5-phenyl-1-(pyridin-2-yl)pent-1-en-3-yl)amino)propan-2-yl)carbamate], the “T. cruzi axenic culture EC50” value [3] is reported as “poorly effective”.

For `C[n+]1ccccc1/C=C/[C@H](CCc1ccccc1)NC(=O)[C@H](Cc1ccccc1)NC(=O)OCc1ccccc1` [Compound 15, 2-((S,E)-3-((S)-2-(((Benzyloxy)carbonyl)amino)-3-phenylpropanamido)-5-phenylpent-1-en-1-yl)-1-methylpyridin-1-ium], the “selectivity index CC50/EC50” value [4] was over 20, the Ki [1] was 0.6 ± 0.2 µM and the “k3 (eq 6)” value ([1]; pH 7.5, global fitting to eq 6) was 0.0012 ± 0.0004 s⁻¹. For the same compound, the “k4 (eq 6)” value ([1]; pH 7.5, global fitting to eq 6) was 0.00019 ± 0.00005 s⁻¹, the “rate of formation of GSH adduct” value ([2]; pH 8.0) was 0.054 mM⁻¹ s⁻¹ and the “Keq of GSH adduct (apparent equilibrium)” value ([2]; pH 8.0) was 2400 M⁻¹.

With `O=C(N[C@@H](Cc1ccccc1)C(=O)N[C@H](/C=C/c1cc(C(F)(F)F)ccn1)CCc1ccccc1)OCc1ccccc1` [Compound 17, Benzyl ((S)-1-Oxo-3-phenyl-1-(((S,E)-5-phenyl-1-(4-(trifluoromethyl)pyridin-2-yl)pent-1-en-3-yl)amino)propan-2-yl)-carbamate] the “reaction with GSH (adduct formation)” value ([2]; pH 8.0) was “no adduct was observed”.

In the case of `O=C(N[C@@H](Cc1ccccc1)C(=O)N[C@H](/C=C/c1ncco1)Cc1ccccc1)OCc1ccccc1` [Compound 24, Benzyl ((S)-1-(((S,E)-4-(Oxazol-2-yl)-1-phenylbut-3-en-2-yl)-amino)-1-oxo-3-phenylpropan-2-yl)carbamate], the “T. cruzi axenic culture EC50” value [3] is reported as “poorly effective”.

With `O=C(N[C@@H](Cc1ccccc1)C(=O)N[C@H](/C=C/c1nccs1)Cc1ccccc1)OCc1ccccc1` [Compound 25, Benzyl ((S)-1-Oxo-3-phenyl-1-(((S,E)-1-phenyl-4-(thiazol-2-yl)-but-3-en-2-yl)amino)propan-2-yl)carbamate] the “reaction with GSH (adduct formation)” value ([2]; pH 8.0) was “no adduct was observed”.

For `C[n+]1ccsc1/C=C/[C@H](Cc1ccccc1)NC(=O)[C@H](Cc1ccccc1)NC(=O)OCc1ccccc1.[I-]` [Compound 26, 2-((S,E)-3-((S)-2-(((Benzyloxy)carbonyl)amino)-3-phenylpropanamido)-4-phenylbut-1-en-1-yl)-3-methylthiazol-3-ium Iodide], the “rate of formation of GSH adduct” value ([2]; pH 8.0) was 0.015 mM⁻¹ s⁻¹ and the “Keq of GSH adduct (apparent equilibrium)” value ([2]; pH 8.0) was 930 M⁻¹.

In the case of `CN1CCN(C(=O)N[C@@H](Cc2ccccc2)C(=O)N[C@H](/C=C/S(=O)(=O)c2ccccc2)CCc2ccccc2)CC1` [K11777, reference compound], the “rate of glutathione adduct formation k” value ([2]; 0.5 mM compound, 1 mM GSH, pH 8.0) is reported as 0.00028 s⁻¹.

In the case of `Cc1cc(=O)oc2cc(NC(=O)[C@H](CCCN=C(N)N)NC(=O)[C@H](Cc3ccccc3)NC(=O)OCc3ccccc3)ccc12` [S1, Cbz-Phe-Arg-AMC, reference compound] (Cbz-Phe-Arg-{AMC}), the Km [5] is reported as 890 ± 90 nM, the kcat [5] is reported as 9.6 ± 0.2 s⁻¹ and the kcat rel [5] is reported as 1.00. The “Michaelis constant, cathepsin L” value [6] was 2.9 µM, the “Michaelis constant, cathepsin B” value [7] was 150 µM and the “Michaelis constant, cathepsin S” value [8] was 60 µM.

Compound `Cc1cc(=O)oc2cc(NC(=O)[C@H](CCc3ccccc3)NC(=O)[C@H](Cc3ccccc3)NC(=O)OCc3ccccc3)ccc12` [S2, Cbz-Phe-hPhe-AMC] (Cbz-Phe-[hPhe]-{AMC}) has a Km [5] of 260 ± 60 nM, a kcat [5] of 2.0 ± 0.2 s⁻¹ and a kcat rel [5] of 0.21.

Work on `Cc1cc(=O)oc2cc(NC(=O)C(CCc3ccccc3)NC(=O)C(CC(C)C)NC(=O)OCc3ccccc3)ccc12` (stereo not drawn) [S3, Cbz-Leu-hPhe-AMC] (Cbz-Leu-[hPhe]-{AMC}; configuration not given here) yielded a Km [5] of 800 ± 200 nM and a kcat [5] of 3.0 ± 0.2 s⁻¹.

Compound `Cc1cc(=O)oc2cc(NC(=O)[C@H](CCCN=C(N)N)NC(=O)[C@H](CC(C)C)NC(=O)OCc3ccccc3)ccc12` [S4, Cbz-Leu-Arg-AMC] has a Km [5] of 2200 ± 300 nM, a kcat [5] of 8.4 ± 0.4 s⁻¹ and a kcat rel [5] of 0.88.

`Cc1cc(=O)oc2cc(NC(=O)C(Cc3ccncc3)NC(=O)C(Cc3ccccc3)NC(=O)OCc3ccccc3)ccc12` (stereo not drawn) [S5, Cbz-Phe-(4-Pyr)Ala-AMC] (Cbz-Phe-[4Pal]-{AMC}; configuration not given here) gave a Km [5] of 3700 ± 500 nM, a kcat [5] of 7.5 ± 0.5 s⁻¹ and a kcat rel [5] of 0.76.

For `Cc1cc(=O)oc2cc(NC(=O)[C@H](CCCN=C(N)N)NC(=O)[C@H](CCCN=C(N)N)NC(=O)OCc3ccccc3)ccc12` [S6, Cbz-Arg-Arg-AMC] (Cbz-Arg-Arg-{AMC}), the kcat rel [5] is given as 0.75, the Km [9] is given as 3.7 ± 0.4 µM and the kcat [9] is given as 7.2 ± 0.1 s⁻¹.

`Cc1cc(=O)oc2cc(NC(=O)C(CCc3ccccc3)NC(=O)C(Cc3ccccc3)NC(=O)N3CCN(C)CC3)ccc12` (stereo not drawn) [S7, NMePip-Phe-hPhe-AMC] gave a Km [5] of 3100 ± 300 nM, a kcat [5] of 4.0 ± 0.1 s⁻¹ and a kcat rel [5] of 0.42.

In the case of `Cc1cc(=O)oc2cc(NC(=O)[C@H](CCc3ccccc3)NC(=O)[C@H](Cc3ccncc3)NC(=O)OCc3ccccc3)ccc12` [S8, Cbz-(4-Pyr)Ala-hPhe-AMC] (Cbz-[4Pal]-[hPhe]-{AMC}), the Km [5] is reported as 4600 ± 500 nM, the kcat [5] is reported as 5.3 s⁻¹ and 5.3 ± 0.2 s⁻¹ and the kcat rel [5] is reported as 0.55.

Work on `Cc1cc(=O)oc2cc(NC(=O)[C@H](Cc3ccccc3)NC(=O)[C@H](Cc3ccccc3)NC(=O)OCc3ccccc3)ccc12` [S9, Cbz-Phe-Phe-AMC] (Cbz-Phe-Phe-{AMC}) yielded a Km [5] of 340 ± 60 nM, a kcat [5] of 0.26 ± 0.01 s⁻¹ and a kcat rel [5] of 0.03.

For `Cc1cc(=O)oc2cc(NC(=O)C(CCc3ccccc3)NC(=O)C(CCCN=C(N)N)NC(=O)OCc3ccccc3)ccc12` (stereo not drawn) [S10, Cbz-Arg-hPhe-AMC], the Km [5] was 6800 ± 400 nM, the kcat [5] was 4.9 s⁻¹ and 4.9 ± 0.1 s⁻¹ and the kcat rel [5] was 0.51.

With `Cc1cc(=O)oc2cc(NC(=O)[C@H](Cc3ccccc3)NC(=O)[C@H](Cc3ccccc3)NC(=O)N3CCN(C)CC3)ccc12` [S11, NMePip-Phe-Phe-AMC] the Km [5] was 14000 ± 4000 nM, the kcat [5] was 2.8 ± 0.06 s⁻¹ and the kcat rel [5] was 0.29.

In the case of `Cc1cc(=O)oc2cc(NC(=O)C(C)NC(=O)C(Cc3ccccc3)NC(=O)OCc3ccccc3)ccc12` (stereo not drawn) [S12, Cbz-Phe-Ala-AMC], the kcat rel [5] is given as 0.09, the Km [9] is given as 38 ± 2 µM and the kcat [9] is given as 0.89 ± 0.06 s⁻¹.

For `O=C(Cn1ccnc1[N+](=O)[O-])NCc1ccccc1` [benznidazole], the “LD50 (antichagasic potency)” value [10] is given as 1.5 µM.
